Experimental data published in patent US20230159510A1, “NOVEL PRMT5 INHIBITORS” (AMGEN INC., priority 2020, published 2023).
Like-named read-outs stand apart in the source and are kept apart here.

Experiments:
[1] = system: HCT116 MTAP null cells; test: HCT116 proliferation assay, MTAP null cells (CellTiter-Glo, 6 days); assay type: cell-based; details: read-out: Protif_ HCT116-MTAP null IC50
How it was run: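 Cells grown in RPMI 1640 + 10% FBS, plated overnight, then exposed for 6 days to 8- or 9-point 1:3 compound dilutions (top 1 or 10 µM) with DMSO control. Viability read by CellTiter-Glo luminescence.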

[2] = target: PRMT5/MEP50 (Homo sapiens, UniProt O14744); test: MTase-Glo methyl transferase assay, Method B (FL-Histone H2A, 1 µM MTA, 1 h pre-incubation); assay type: biochemical; set-up: purchased Reaction Biology Corp RD-11-292; details: read-out: PRMT5 MTase Glo Ki (nM, Meth. B)
PRMT5/MEP50, sequence (O14744 2-637 limits assumed): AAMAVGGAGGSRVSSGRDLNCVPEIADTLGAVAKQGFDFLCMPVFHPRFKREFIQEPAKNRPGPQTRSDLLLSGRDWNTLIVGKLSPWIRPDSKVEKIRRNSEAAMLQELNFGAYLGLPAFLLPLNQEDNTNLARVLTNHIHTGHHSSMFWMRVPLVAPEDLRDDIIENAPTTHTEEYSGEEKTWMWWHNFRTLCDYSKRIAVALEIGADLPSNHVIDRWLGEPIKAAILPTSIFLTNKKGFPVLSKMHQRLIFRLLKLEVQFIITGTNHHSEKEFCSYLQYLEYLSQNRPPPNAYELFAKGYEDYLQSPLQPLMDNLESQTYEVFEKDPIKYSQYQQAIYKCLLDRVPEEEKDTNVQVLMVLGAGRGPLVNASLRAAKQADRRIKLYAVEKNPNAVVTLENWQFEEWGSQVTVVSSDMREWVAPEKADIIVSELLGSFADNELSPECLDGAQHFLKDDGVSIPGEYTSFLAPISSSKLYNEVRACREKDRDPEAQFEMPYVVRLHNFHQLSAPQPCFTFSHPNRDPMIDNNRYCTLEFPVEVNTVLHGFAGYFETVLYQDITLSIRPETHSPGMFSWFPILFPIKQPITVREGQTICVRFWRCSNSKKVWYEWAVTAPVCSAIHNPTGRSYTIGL
PRMT5/MEP50, sequence (Q9BQA1 2-342 partner limits assumed): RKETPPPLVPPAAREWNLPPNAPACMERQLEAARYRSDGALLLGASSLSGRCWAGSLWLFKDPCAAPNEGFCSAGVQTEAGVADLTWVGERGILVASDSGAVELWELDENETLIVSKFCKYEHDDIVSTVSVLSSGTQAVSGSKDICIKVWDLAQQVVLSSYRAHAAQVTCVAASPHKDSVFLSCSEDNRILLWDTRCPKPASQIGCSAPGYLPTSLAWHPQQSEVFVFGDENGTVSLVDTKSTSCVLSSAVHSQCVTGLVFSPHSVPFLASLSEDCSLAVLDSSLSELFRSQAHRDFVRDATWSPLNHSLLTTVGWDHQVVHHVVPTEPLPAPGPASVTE
Method: Method B: The PRMT5 inhibitory activity of test compounds was determined using the MTase-Glo™ assay (Promega), which monitors the product (S-adenosyl homocysteine or SAH) of methyltransferase reactions. The PRMT5 MTase-Glo assay was conducted in a 384-well white ProxiPlate (PerkinElmer) in a total volume of 16 µL. The PRMT5 enzymatic reaction (in 8 µL) contained 4 nM PRMT5/MEP50 (Reaction Biology Corp, catalog no.: RD-11-292), 5 µM S-adenosyl methionine (SAM, Promega), 2.5 µM FL-Histone H2A (BPS Bioscience, catalog no.: 52021), 1 µM 5′-methylthioadenosine (MTA, Sigma) and ½ log serially diluted compounds in a reaction buffer of 50 mM Tris (pH 8.0), 50 mM NaCl, 0.01% Tween 20, 0.01% BSA, and 1 mM TCEP. Test compounds were pre-incubated with PRMT5/MEP50, SAM, and MTA for 1 hour before addition of FL-Histone H2A to initiate the PRMT5 reaction. The reaction was allowed to proceed for 20 hours at room temperature and was then terminated by addition of 1 µL of 9X MTase-Glo™ Reagent (Promega). After a 30-minute incubation at room temperature, 8 µL of MTase-Glo™ Detection Solution (Promega) was added and the plate was incubated at room temperature for an additional 30 minutes. The light signal corresponding to the amount of SAH produced by the PRMT5 reaction was subsequently measured using an Envision multimode reader (PerkinElmer). IC50 and KI values were obtained by analyzing dose-response curves using GraphPad Prism®.

Structure (SMILES) | IC50 ([1]; HCT116-MTAP null, 144 h) | Ki [2] | IC50 [1]
Cc1cc2cc(C(=O)N(Cc3cncnc3)Cc3ccc(C(F)(F)F)cn3)ccc2nc1N [Example 626, 2-amino-3-methyl-N-(pyrimidin-5-ylmethyl)-N-((5-(trifluoromethyl)pyridin-2-yl)methyl)quinoline-6-carboxamide] |  | 42.7 nM | 
COc1cccc2c1OCCC2N(Cc1ccc(C(F)(F)F)cn1)C(=O)c1ccc2nc(N)c(C)cc2c1 (stereo not shown) [Example 630, 2-amino-N-(8-methoxychroman-4-yl)-3-methyl-N-[[5-(trifluoromethyl)-2-pyridyl]methyl] quinoline-6-carboxamide] | 33 nM | 4.58 nM | 
Cc1cc2cc(C(=O)N(Cc3ccc(C(F)(F)F)cn3)C3CCCc4c[nH]nc43)ccc2nc1N (stereo not shown) [Example 631, 2-amino-3-methyl-N-(4,5,6,7-tetrahydro-2H-indazol-7-yl)-N-[[5-(trifluoromethyl)-2-pyridyl]methyl] quinoline-6-carboxamide] | 28 nM | 7.14 nM | 
Cc1cc2cc(C(=O)N(Cc3ccc(C(F)(F)F)cn3)Cc3ccnc4[nH]ccc34)cnc2nc1N [Example 635, 7-amino-6-methyl-N-(1H-pyrrolo[2,3-b]pyridin-4-ylmethyl)-N-[[5-(trifluoromethyl)-2-pyridyl]methyl]-1,8-naphthyridine-3-carboxamide] |  | 1.29 nM | 18 nM
Cc1cc2cc(C(=O)N(Cc3ccc(C(N)=O)nc3)Cc3ccc(C(F)(F)F)cn3)ccc2nc1N [Example 637, 2-amino-N-[(6-carbamoyl-3-pyridyl)methyl]-3-methyl-N-[[5-(trifluoromethyl)-2-pyridyl]methyl] quinoline-6-carboxamide] | > 1000 nM | 5.2 nM | 
CNC(=O)c1ccc(CN(Cc2ccc(C(F)(F)F)cn2)C(=O)c2ccc3nc(N)c(C)cc3c2)cc1 [Example 638, 2-amino-3-methyl-N-[[4-(methylcarbamoyl)phenyl]methyl]-N-[[5-(trifluoromethyl)-2-pyridyl]methyl] quinoline-6-carboxamide] | 200 nM | 1.9 nM | 
Cc1cc2cc(C(=O)N(Cc3ccc(C(F)(F)F)cn3)C(C)C(C)O)ccc2nc1N (stereo not shown) [Example 641, 2-amino-N-(2-hydroxy-1-methylpropyl)-3-methyl-N-[[5-(trifluoromethyl)-2-pyridyl]methyl] quinoline-6-carboxamide] | 920 nM | 13.1 nM | 
Cc1cc2cc(C(=O)N(Cc3cccc(-n4cncn4)c3)CC(C)C)ccc2nc1N [Example 644, 2-amino-N-isobutyl-3-methyl-N-[[3-(1,2,4-triazol-1-yl)phenyl]methyl] quinoline-6-carboxamide] |  | 29.3 nM | 
Cc1cc2cc(C(=O)N(CC#CCO)Cc3ccc(C(F)(F)F)cn3)ccc2nc1N [Example 658, 2-amino-N-(4-hydroxybut-2-ynyl)-3-methyl-N-[[5-(trifluoromethyl)-2-pyridyl]methyl] quinoline-6-carboxamide] |  | 12.6 nM | 
Cc1cc2cc(C(=O)N(Cc3ccc(C(F)(F)F)cn3)C(C)C(C)n3cccn3)ccc2nc1N (stereo not shown) [Example 679, 2-amino-3-methyl-N-(1-methyl-2-pyrazol-1-yl-propyl)-N-[[5-(trifluoromethyl)-2-pyridyl]methyl] quinoline-6-carboxamide] |  | 36.8 nM | 
Cc1cc2cc(C(=O)N(Cc3ccc(C(F)(F)F)cn3)C3CC(C#N)C3)ccc2nc1N (stereo not shown) [Example 697, 2-amino-N-(3-cyanocyclobutyl)-3-methyl-N-[[5-(trifluoromethyl)-2-pyridyl]methyl] quinoline-6-carboxamide] |  | 36.5 nM | 
Cc1cc2cc(C(=O)N(Cc3ccc(C(F)(F)F)cn3)C3CCCC3C#N)cnc2nc1N (stereo not shown) [Example 700, 7-amino-N-(2-cyanocyclopentyl)-6-methyl-N-[[5-(trifluoromethyl)-2-pyridyl]methyl]-1,8-naphthyridine-3-carboxamide] |  | 38.1 nM | 
Cc1cc2cc(C(=O)N(Cc3ccc(C(F)(F)F)cn3)C3CC3(C)C)ccc2nc1N (stereo not shown) [Example 706, 2-amino-N-(2,2-dimethylcyclopropyl)-3-methyl-N-[[5-(trifluoromethyl)-2-pyridyl]methyl] quinoline-6-carboxamide] |  | 31 nM | 

Further lines, results first:

IC50 ([1]; HCT116-MTAP null, 144 h) | Ki [2] | IC50 [1] | Structure (SMILES)
180 nM | 1.99 nM |  | Cc1cc2cc(C(=O)N(Cc3ccc(C(F)(F)F)cn3)C(C)c3ccc4c(c3)NC(=O)CO4)ccc2nc1N (stereo not shown) [Example 625, 2-amino-3-methyl-N-(1-(3-oxo-3,4-dihydro-2H-benzo[b][1,4]oxazin-6-yl)ethyl)-N-((5-(trifluoromethyl)pyridin-2-yl)methyl)quinoline-6-carboxamide]
360 nM | 2.8 nM |  | Cc1cc2cc(C(=O)N(Cc3ccc(C(F)(F)F)cn3)Cc3ccc[nH]c3=O)ccc2nc1N [Example 627, 2-amino-3-methyl-N-((2-oxo-1,2-dihydropyridin-3-yl)methyl)-N-((5-(trifluoromethyl)pyridin-2-yl)methyl)quinoline-6-carboxamide]
770 nM | 5.93 nM |  | Cc1cc2cc(C(=O)N(CCC3CCC3)Cc3ccc(C(F)(F)F)cn3)ccc2nc1N [Example 629, 2-amino-N-(2-cyclobutylethyl)-3-methyl-N-((5-(trifluoromethyl)pyridin-2-yl)methyl)quinoline-6-carboxamide]
340 nM | 5.3 nM |  | Cc1cc2cc(C(=O)N(Cc3ccc(C(F)(F)F)cn3)C(C)C3CCCO3)ccc2nc1N (stereo not shown) [Example 632, 2-amino-3-methyl-N-(1-tetrahydrofuran-2-ylethyl)-N-[[5-(trifluoromethyl)-2-pyridyl]methyl] quinoline-6-carboxamide]
330 nM | 4.8 nM |  | Cc1cc2cc(C(=O)N(Cc3ccc(C(F)(F)F)cn3)C3CCCC4OCCC43)ccc2nc1N (stereo not shown) [Example 633, N-(2,3,3a,4,5,6,7,7a-octahydrobenzofuran-4-yl)-2-amino-3-methyl-N-[[5-(trifluoromethyl)-2-pyridyl]methyl] quinoline-6-carboxamide]
930 nM | 6.84 nM |  | Cc1cc2cc(C(=O)N(Cc3ccc(C(F)(F)F)cn3)C(C)CC(C)C)ccc2nc1N (stereo not shown) [Example 634, 2-amino-N-(1,3-dimethylbutyl)-3-methyl-N-[[5-(trifluoromethyl)-2-pyridyl]methyl] quinoline-6-carboxamide]
890 nM | 2.3 nM |  | Cc1cc2cc(C(=O)N(Cc3ccc4c(c3)CNC4=O)Cc3ccc(C(F)(F)F)cn3)ccc2nc1N [Example 636, 2-amino-3-methyl-N-[(1-oxoisoindolin-5-yl)methyl]-N-[[5-(trifluoromethyl)-2-pyridyl]methyl] quinoline-6-carboxamide]
580 nM | 12.2 nM |  | Cc1cc2cc(C(=O)N(Cc3cc(Cl)ccn3)CC(C)C)ccc2nc1N [Example 639, 2-amino-N-[(4-chloro-2-pyridyl)methyl]-N-isobutyl-3-methylquinoline-6-carboxamide]
730 nM | 14.1 nM |  | Cc1cc2cc(C(=O)N(Cc3ncccc3Br)CC(C)C)ccc2nc1N [Example 640, 2-amino-N-[(3-bromo-2-pyridyl)methyl] -N-isobutyl-3-methylquinoline-6-carboxamide]
86 nM | 2.55 nM |  | Cc1cc2cc(C(=O)N(Cc3ccc(C(F)(F)F)cn3)C(C)C(C)C)ccc2nc1N (stereo not shown) [Example 642, 2-amino-N-(1,2-dimethylpropyl)-3-methyl-N-[[5-(trifluoromethyl)-2-pyridyl]methyl] quinoline-6-carboxamide]
 | 39.6 nM |  | Cc1cc2cc(C(=O)N(Cc3ccc(N4CCCC4)cc3)CC(C)C)ccc2nc1N [Example 643, 2-amino-N-isobutyl-3-methyl-N-[(4-pyrrolidin-1-ylphenyl)methyl]quinoline-6-carboxamide]
 | 23 nM |  | Cc1cc2cc(C(=O)N(Cc3ccc(C(F)(F)F)cn3)C(CC(N)=O)C3CCOCC3)ccc2nc1N (stereo not shown) [Example 682, 2-amino-N-(3-amino-3-oxo-1-tetrahydropyran-4-yl-propyl)-3-methyl-N-[[5-(trifluoromethyl)-2-pyridyl]methyl] quinoline-6-carboxamide]
 | 36.4 nM |  | Cc1cc2cc(C(=O)N(Cc3ccc(C(F)(F)F)cn3)C3CC4(C3)CC(F)(F)C4)ccc2nc1N [Example 698, 2-amino-N-(2,2-difluorospiro [3.3]heptan-6-yl)-3-methyl-N-[[5-(trifluoromethyl)-2-pyridyl]methyl] quinoline-6-carboxamide]
 | 37.2 nM |  | Cc1cc2cc(C(=O)N(Cc3ccc(C(F)(F)F)cn3)C3CCCC3C#N)ncc2nc1N (stereo not shown) [Example 701, 2-amino-N-(2-cyanocyclopentyl)-3-methyl-N-[[5-(trifluoromethyl)-2-pyridyl]methyl]-1,7-naphthyridine-6-carboxamide]
